Key:
[1] = molecular target: T1, LigE (Sphingobium sp. SYK-6, UniProt P27457); test: chiral HPLC of MPHPV conversion; assay type: biochemical; settings: 400 µM racemic MPHPV; 5 mM GSH; 50 mM Tris-HCl pH 7.5; 30 °C; 60 min
T1 construct: full length in pET-16b (pET08660), His-tagged, E. coli BL21(DE3), His SpinTrap purified
T1 sequence (P27457 1-281 limits assumed): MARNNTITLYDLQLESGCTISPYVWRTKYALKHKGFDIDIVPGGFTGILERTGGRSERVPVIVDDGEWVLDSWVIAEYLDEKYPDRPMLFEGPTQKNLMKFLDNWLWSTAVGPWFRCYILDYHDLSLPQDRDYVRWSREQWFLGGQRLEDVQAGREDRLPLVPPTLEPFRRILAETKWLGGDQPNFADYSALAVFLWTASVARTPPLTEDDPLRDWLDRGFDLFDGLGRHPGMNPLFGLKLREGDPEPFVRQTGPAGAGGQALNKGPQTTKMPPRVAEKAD

[2] = molecular target: T2, LigF (Sphingobium sp. SYK-6, UniProt P30347); test: chiral HPLC of MPHPV conversion; assay type: biochemical; settings: 400 µM racemic MPHPV; 5 mM GSH; 50 mM Tris-HCl pH 7.5; 30 °C; 60 min
T2 construct: full length in pET-16b (pET08650), His-tagged, E. coli BL21(DE3), His SpinTrap purified
T2 sequence (P30347 1-257): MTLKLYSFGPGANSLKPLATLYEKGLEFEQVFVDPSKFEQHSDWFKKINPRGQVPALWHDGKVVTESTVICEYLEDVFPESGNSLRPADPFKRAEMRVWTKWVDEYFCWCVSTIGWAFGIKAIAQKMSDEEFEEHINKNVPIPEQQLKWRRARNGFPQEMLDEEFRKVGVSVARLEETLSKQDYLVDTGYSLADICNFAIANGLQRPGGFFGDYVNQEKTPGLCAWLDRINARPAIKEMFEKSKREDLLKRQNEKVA

| SMILES | chiral HPLC of MPHPV conversion [1] | chiral HPLC of MPHPV conversion [2] |
| --- | --- | --- |
| COc1cc(C(=O)[C@@H](CO)Oc2ccccc2OC)ccc1O [(βR)-MPHPV] | LigF and LigE completely converted (βS)-MPHPV and (βR)-MPHPV, respectively | – |
| COc1cc(C(=O)[C@H](CO)Oc2ccccc2OC)ccc1O [(βS)-MPHPV] | – | LigF and LigE completely converted (βS)-MPHPV and (βR)-MPHPV, respectively |

From publication PMC7691349, “Roles of two glutathione S-transferases in the final step of the β-aryl ether cleavage pathway in Sphingobium sp. strain SYK-6” (Scientific Reports, 2020)
